Data: patent US20100256402A1, “NOVEL SOLVATE” (Sandoz AG, priority 2007, published 2010)
In brackets after ≈: the same amount, converted by molar mass.

How the values were obtained:
Assay type in all cases: physicochemical
[1] = Stability after storing different forms of Tigecycline at 80° C. for 7 days; details: for 4-Epi-Tigecycline 7 days at 80° C. / Total impurities 7 days at 80° C.: after storing 7 days at 80° C.; for 4-Epi-Tigecycline ambient conditions / Total impurities ambient conditions: ambient conditions (before storage)
[2] = Water content and hygroscopicity, open storage for 24 hours at 80% relative humidity; details: for water content 1 day at 80% rH: open storage 1 day at 80% rH; for water uptake 1 day at 80% rH: open storage for 24 hours at 80% relative humidity
Text: Furthermore suitable crystalline forms of Tigecycline should be low hygroscopic, as water uptake may cause the formation of undesired byproducts like e.g. 4-Epi-Tigecycline. […] Therefore crystalline form X is less hygroscopic than forms I, II, Ill and V of WO 2006/128150 and also less hygroscopic than form I of WO 2007/127292.

[3] = Water solubility testing (saturated solution in distilled water, UV-vis 347 nm); details: for Concentration (water solubility): 30 min
Method: A UV-vis Lambda 35 spectrophotometer (Perkin-Elmer) was used (A=347 nm, 1.0 cm quartz cells). Perkin Elmer® UV WinLab-5.1 software was used.
A saturated solution of Tigecycline in distilled water was prepared and the suspension was stirred at room temperature for 30 minutes with a stirring speed of 1000 U/min. The suspension was filtrated through a 0.45 μm filter. Finally the resulting solution was diluted 10000-fold and measured against water at a wavelength of 347 nm.

CN(C)c1cc(NC(=O)CNC(C)(C)C)c(O)c2c1C[C@H]1C[C@H]3[C@H](N(C)C)C(O)=C(C(N)=O)C(=O)[C@@]3(O)C(O)=C1C2=O [WO 2007/127292 I, Tigecycline]
4-Epi-Tigecycline 7 days at 80° C. ([1]; listed as WO 2007/127792 I): 1.26%
Total impurities 7 days at 80° C. ([1]; listed as WO 2007/127792 I): 2.22%
4-Epi-Tigecycline ambient conditions ([1]; listed as WO 2007/127792 I): 0.34%
Total impurities ambient conditions ([1]; listed as WO 2007/127792 I): 0.59%
water content [%] ambient conditions [2]: 0.13%
water content 1 day at 80% rH [2]: 6.39%
water uptake 1 day at 80% rH [2]: 6.26%
water uptake 1 day at 80% rH ([2]; listed as form I of WO 2007/127292): 6.26%
Concentration (water solubility) [3]: 54 mg/mL

CN(C)c1cc(NC(=O)CNC(C)(C)C)c(O)c2c1C[C@H]1C[C@H]3[C@H](N(C)C)C(O)=C(C(N)=O)C(=O)[C@@]3(O)C(O)=C1C2=O [X, Tigecycline]
4-Epi-Tigecycline 7 days at 80° C. [1]: 0.79%
Total impurities 7 days at 80° C. [1]: 3.48%
4-Epi-Tigecycline ambient conditions [1]: 0.2%
Total impurities ambient conditions [1]: 0.58%
water content [%] ambient conditions [2]: 0.29%
water content 1 day at 80% rH [2]: 0.86%
water uptake 1 day at 80% rH [2]: 0.57%
water uptake 1 day at 80% rH ([2]; listed as form X): 0.57%
Concentration (water solubility) [3]: 162 mg/mL

CN(C)c1cc(NC(=O)CNC(C)(C)C)c(O)c2c1C[C@H]1C[C@H]3[C@H](N(C)C)C(O)=C(C(N)=O)C(=O)[C@@]3(O)C(O)=C1C2=O [WO 2006/128150 III, Tigecycline]
4-Epi-Tigecycline ambient conditions [1]: 0.16%
Total impurities ambient conditions [1]: 0.16%
water content [%] ambient conditions [2]: 0.69%
Concentration (water solubility) [3]: 174 mg/mL

CN(C)c1cc(NC(=O)CNC(C)(C)C)c(O)c2c1C[C@H]1C[C@H]3[C@H](N(C)C)C(O)=C(C(N)=O)C(=O)[C@@]3(O)C(O)=C1C2=O [WO 2006/128150 II, Tigecycline]
Total impurities ambient conditions [1]: 1.6%
Concentration (water solubility) [3]: 170 mg/mL

CN(C)c1cc(NC(=O)CNC(C)(C)C)c(O)c2c1C[C@H]1C[C@H]3[C@H](N(C)C)C(O)=C(C(N)=O)C(=O)[C@@]3(O)C(O)=C1C2=O [WO 2006/128150 IV, Tigecycline]
4-Epi-Tigecycline 7 days at 80° C. [1]: 0.38%
Total impurities 7 days at 80° C. [1]: 0.87%
4-Epi-Tigecycline ambient conditions [1]: 0.23%
Total impurities ambient conditions [1]: 0.4%
water content [%] ambient conditions [2]: 2.90%
water uptake 1 day at 80% rH [2]: 0.43%
solubility at 30 min ([3]; distilled water, water, thermodynamic from solid, distilled water, room temperature, stirred 30 minutes, 0.45 μm filter, read-out: Concentration (water solubility)): 322 mg/mL (≈ 550 mM)

CN(C)c1cc(NC(=O)CNC(C)(C)C)c(O)c2c1C[C@H]1C[C@H]3[C@H](N(C)C)C(O)=C(C(N)=O)C(=O)[C@@]3(O)C(O)=C1C2=O [WO 2006/128150 I, Tigecycline]
4-Epi-Tigecycline ambient conditions [1]: 0.36%
Total impurities ambient conditions [1]: 0.75%
water uptake 1 day at 80% rH [2]: 3.00%
Concentration (water solubility) [3]: 201 mg/mL

CN(C)c1cc(NC(=O)CNC(C)(C)C)c(O)c2c1C[C@H]1C[C@H]3[C@H](N(C)C)C(O)=C(C(N)=O)C(=O)[C@@]3(O)C(O)=C1C2=O [WO 2006/128150 V, Tigecycline]
4-Epi-Tigecycline 7 days at 80° C. [1]: 0.18%
Total impurities 7 days at 80° C. [1]: 0.37%
4-Epi-Tigecycline ambient conditions [1]: < 0.05%
Total impurities ambient conditions [1]: 0.22%
water content [%] ambient conditions [2]: 0.19%

CN(C)c1cc(NC(=O)CNC(C)(C)C)c(O)c2c1C[C@H]1C[C@H]3[C@H](N(C)C)C(O)=C(C(N)=O)C(=O)[C@@]3(O)C(O)=C1C2=O [WO 2007/127292 II, Tigecycline]
4-Epi-Tigecycline 7 days at 80° C. ([1]; listed as WO 2007/127792 II): 0.38%
Total impurities 7 days at 80° C. ([1]; listed as WO 2007/127792 II): 0.91%
4-Epi-Tigecycline ambient conditions ([1]; listed as WO 2007/127792 II): 0.17%
Total impurities ambient conditions ([1]; listed as WO 2007/127792 II): 0.24%
water content [%] ambient conditions [2]: 0.18%
water content 1 day at 80% rH [2]: 0.25%
water uptake 1 day at 80% rH [2]: 0.07%
